Measurements: PMC6748986, “Potent modulation of the CepR quorum sensing receptor and virulence in a Burkholderia cepacia complex member using non-native lactone ligands” (Scientific Reports, 2019)

What was measured:
CepR [1] = biological target: T1, CepR (Burkholderia cenocepacia, UniProt B4EMD0); experiment: CepR agonism in E. coli β-galactosidase reporter (Ec-reporter) JLD271 [pJN105-cepR + pSC11-cepI]; assay type: cell-based, B. cenocepacia; details: for Maximal Activation (%): activity for 100 μM C8-AHL set to 100%, error ±10%
T1 sequence (B4EMD0 1-239): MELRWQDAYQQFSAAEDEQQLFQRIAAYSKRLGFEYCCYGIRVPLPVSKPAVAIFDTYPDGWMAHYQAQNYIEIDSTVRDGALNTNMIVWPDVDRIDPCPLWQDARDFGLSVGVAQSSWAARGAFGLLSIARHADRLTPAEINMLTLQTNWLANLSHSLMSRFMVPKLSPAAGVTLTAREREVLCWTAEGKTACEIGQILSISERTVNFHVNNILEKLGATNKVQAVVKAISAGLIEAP
From the text: (§1) We began our study by screening the AHL library for CepR modulators using an E. coli-based two plasmid reporter system (Ec-reporter)[38]–[40]. Certain members of the Bcc harbor additional QS systems that are either AHL-based (e.g., BviI/BviR in B. vietnamiensis)[41] or diffusible signal factor (DSF)-based (B. cenocepacia)[42], and at least one member of the Bcc has multiple receptors that respond to C8-AHL (e.g., CepR and CepR2 in B. cenocepacia)[43]. Thus, we reasoned that using a CepR reporter in a heterologous background could simplify our initial analyses. We modified our previously reported E. coli-based two plasmid β-galactosidase reporter system to develop a CepR Ec-reporter (see Methods). The first plasmid, pJN105-cepR, contains CepR from B. cenocepacia under the control of the L-arabinose inducible pBAD promoter. A second plasmid contains a transcriptional fusion of lacZ to the cepI promoter region. The two plasmids were co-transformed into a QS mutant E. coli strain (JLD271 ∆sdiA) that lacks its LuxR-type receptor, SdiA. Using this reporter system, if an exogenously -added compound is able to interact with CepR, this will affect the protein’s interaction with the cepI promoter region and alter β-galactosidase production. Enzyme production, and thereby CepR activity, is then measurable via the degradation of a colorimetric substrate for β-galactosidase. Using this new Ec-reporter, we observed robust activity of CepR in response to its native ligand C8-AHL, with an EC50 of 5 nM (Table 1).
We used the CepR Ec-reporter to perform a primary agonism screen at a single compound concentration (100 μM, or its solubility limit, indicated in Table S1). Thirty-one compounds displaying ≥70% agonistic activity in CepR (relative to C8-AHL) were identified and subjected to dose-response analyses using the Ec-reporter (Table I; see Table S2 for complete screening data and Fig. S3 for dose-response curves).
(§2) E. coli β-galactosidase reporter assays (derived from ref.[63]) and reagents used to obtain primary screening and dose-response data were performed as previously described[22],[60],[64], with the following modifications: E. coli JLD271 (∆sdiA) was co-transformed iteratively with pSC11-cepI and pJN105-cepR via electroporation. A single colony was used to start overnight cultures in LB medium + ampicillin (100 μg/mL) + gentamicin (15 μg/mL). A 1:10 dilution of overnight culture was grown in fresh medium to OD600 = 0.25. A sterile solution of L-arabinose in water (27 mM final concentration) was added to induce protein expression, after which cells were plated in 96-well plates containing varying concentrations of compound (200 μL total volume).
(§3) Cells were grown for 4 h, OD600 was read, 50 μL aliquots from each well were permeabilized in 200 μL Z Buffer, and then 150 μL of this mixture used to measure the cleavage of 25 μL of 4 mg/mL CPRG in phosphate buffered saline (PBS) at 37 °C until positive control wells developed a deep red color (~30 min). For all agonism assays, synthetic compound (100 μM) was screened alongside and compared to the native ligand, C8-AHL (100 μM). For all primary and dose-response antagonism assays, the concentration of native ligand utilized was 10 nM (approximately equal to twice its EC50 value). […] At least 3 separate trials were performed using unique cultures on separate days.

CepR [2] = biological target: T1, CepR; experiment: CepR antagonism in E. coli β-galactosidase reporter (Ec-reporter), competition against C8-AHL; assay type: cell-based, B. cenocepacia; details: for Inh% (100-Act%): Table S3, Ec-reporter
From the text: as §1
To identify antagonists of CepR, we screened the AHL library (at 100 μM) in competition against the native ligand C8-AHL (at approximately twice its EC50 value, 0.01 μM) in the Ec-reporter. […] The active compounds were subjected to dose-response analyses in the Ec-reporter to obtain IC50 values and assess their relative potencies (Table 2; see Table S3 for complete screening data and Fig. S3 for dose-response curves). One general trend that we noted at the outset was the majority of the antagonists had acyl tails of similar or shorter overall length than CepR’s native ligand, C8-AHL. From this set, the strongest antagonists could be divided into two classes: (i) “short alkyl tail” AHLs or analogs thereof, and (ii) phenylacetanoyl HLs (PHLs). The discovery that the latter compounds were CepR antagonists was perhaps not surprising, as we have found substituted PHLs to strongly antagonize the majority of the LuxR-type receptors studied in our laboratory to date[22],[24],[29],[45],[46].
as §2, §3

[3] = Table S2, Ec-reporter, screening conc. 100 μM
[4] = screening conc. 100 μM, against 10 nM C8-AHL
[5] = Ec-reporter, agonism dose-response

SMILES	Act% (CepR [1]; [3])	Inh% (100-Act%) (CepR [2]; [4])	further results
CCCCCCCCCCCCCC(=O)N[C@H]1CCOC1=O [Compound C14-AHL, tetradecanoyl L-homoserine lactone, reference compound]	49%	-10%	CepR agonism in words (CepR [1]; Ec-reporter): inactive; Maximal Activation (%) (CepR [1]; Ec-reporter): 49%
O=C(COc1ccc(Br)cc1)N[C@H]1CCOC1=O [Compound E21]	89%	-10%	
O=C(COc1ccc(C(F)(F)F)cc1)N[C@H]1CCOC1=O [Compound E23]	89%	-10%	
O=C(Cc1cccc([N+](=O)[O-])c1)NC1CCCC1 [Compound F18]	1.0%	-20%	CepR antagonism in words (CepR [2]; Ec-reporter): dramatic losses in activity
O=C(Cc1c(F)c(F)c(F)c(F)c1F)N[C@H]1CCOC1=O [Compound C16]	0.1%	-30%	
O=C(Cc1cccc([N+](=O)[O-])c1)Nc1ccccc1 [Compound F25]	3.0%	12%	CepR antagonism in words (CepR [2]; Ec-reporter): dramatic losses in activity
O=C(Cc1ccccc1)N[C@H]1CCOC1=O [Compound C1]	0.0%		CepR antagonism in words (CepR [2]; Ec-reporter): inactive; Maximal Inhibition (%) (CepR [2]; Ec-reporter, against 10 nM C8-AHL): 8%
CCCCCCCCCC(=O)CC(=O)NCc1ccccc1F [Compound F26]	-1.2%	20%	
Cc1ccc(C(=O)CCC(=O)N[C@H]2CCOC2=O)cc1 [Compound D6]	61%	-50%	
O=C(N[C@H]1CCOC1=O)c1ccc(Cl)cc1 [Compound Q4]	49%	-20%	
CCCCCCCC(=O)CC(=O)N[C@H]1CCOC1=O [3’O-C10-AHL, reference compound]	110%	-60%	EC50 (CepR [1]; Table S2, Ec-reporter): 2300 nM
CC(C)(C)OC(=O)NCCCCC(=O)N[C@H]1CCOC1=O [Compound D1]	16%	11%	
CCCCCCCCOc1ccc(C(=O)N[C@H]2CCOC2=O)cc1 [Compound Q9]	62%	-20%	
O=C(Cc1ccc2ccccc2c1)N[C@H]1CCOC1=O [Compound E12]	11%	-10%	
CCCCCCCCCCCCCCCC(=O)N[C@H]1CCOC1=O [Compound C16-AHL, hexadecanoyl L-homoserine lactone, reference compound]			CepR agonism in words (CepR [1]; Ec-reporter): inactive; Maximal Activation (%) (CepR [1]; Ec-reporter): 35%; Act% (CepR [1]; Table S2, Ec-reporter, screening conc. 25 μM): 35%; Inh% (100-Act%) (CepR [2]; screening conc. 25 μM): -10%
O=C(CCc1c[nH]c2ccccc12)N[C@H]1CCOC1=O [Compound B14]	96%	-40%	
O=C(N[C@H]1CCOC1=O)c1ccccc1Br [Compound Q1]	5.8%	-30%	
O=C(Cc1cc(C(F)(F)F)cc(C(F)(F)F)c1)N[C@H]1CCOC1=O [Compound E9]	2.2%	13%	
O=C(CC(O)Cc1cccc(I)c1)N[C@H]1CCOC1=O (some centres unmarked) [Compound H15]	2.6%	18%	
O=C(COc1ccc(I)cc1)N[C@H]1CCOC1=O [Compound E22]	92%	-30%	
O=C(Cc1ccc(-c2ccccc2)cc1)NC1CCSC1=O (centres unmarked) [Compound F13]	35%	-20%	

SMILES	Act% (CepR [1]; [3])	Inh% (100-Act%) (CepR [2]; [4])	further results
CCCCCCCCCC(=O)NC1CCCC1 [Compound C10-CPA, reference compound]	48%	4.0%	
O=C(Cc1ccc(Cl)cc1)N[C@H]1CCOC1=O [Compound C5]	0.1%	25%	
O=C(Cc1ccc(F)cc1)N[C@H]1CCOC1=O [Compound C2]	0.1%	4.0%	CepR antagonism in words (CepR [2]; Ec-reporter): inactive as antagonists
O=C(CCc1cccc([N+](=O)[O-])c1)N[C@H]1CCOC1=O [Compound E38]	93%	-10%	EC50 (CepR [1]; [5]): 660 nM; Maximal Activation (%) (CepR [1]; Ec-reporter): 93%
O=C(COc1ccccc1)N[C@H]1CCOC1=O [Compound E14]	57%	-30%	
CCCCCCCCCC(=O)CC(=O)NCc1ccc(OC)cc1 [Compound F31]	7.6%	21%	
COc1ccc(CC(=O)NC2CCSC2=O)cc1 (centres unmarked) [Compound F12]	2.4%	-20%	
CCCCCC(=O)CC(=O)NC1CCSC1=O (centres unmarked) [3’O-C8-TL]	61%	-20%	
Cc1cccc(OCC(=O)N[C@H]2CCOC2=O)c1 [Compound E16]	11%	21%	
COc1ccc(OCC(=O)N[C@H]2CCOC2=O)cc1 [Compound E17]	50%	0.0%	
CCCCCCCCS(=O)(=O)N[C@H]1CCOC1=O [Compound A13]	108%	17%	CepR agonism in words (CepR [1]; Ec-reporter): failed to activate CepR; EC50 (CepR [1]; [5]): 150 nM; Maximal Activation (%) (CepR [1]; Ec-reporter): 110%
O=C(Cc1ccc(Br)cc1)NC1CCSC1=O (centres unmarked) [Compound F10]	0.5%	6.0%	CepR antagonism in words (CepR [2]; Ec-reporter): dramatic losses in activity
CCCCCCCCCCCC(O)CC(=O)N[C@@H]1CCOC1=O (some centres unmarked) [3’OH-C14-AHL, reference compound]	33%	-40%	
O=C(Cc1cccc([N+](=O)[O-])c1)NC1CCSC1=O (centres unmarked) [Compound F11]	45.0%	25%	
Cc1nc(-c2ccccc2)oc1CC(=O)N[C@H]1CCOC1=O [Compound D4]	40%	22%	
COc1cc(C(C)=O)ccc1OCC(=O)N[C@H]1CCOC1=O [Compound D16]	3.5%	0.0%	
O=C(CCCc1ccccc1)N[C@H]1CCOC1=O [Control 6, reference compound]	80%	3.0%	
O=C(Cc1cccc(F)c1)N[C@H]1CCOC1=O [Compound C3]	0.2%	20%	CepR antagonism in words (CepR [2]; Ec-reporter): inactive as antagonists
O=C(CCc1ccco1)N[C@H]1CCOC1=O [Compound D2]	70%	0.0%	
O=C(Cc1cccc([N+](=O)[O-])c1)Nc1cccc([N+](=O)[O-])c1 [Compound F55]	25%	13%	CepR antagonism in words (CepR [2]; Ec-reporter): dramatic losses in activity
O=C(Cc1ccc(I)cc1)N[C@H]1CCOC1=O [Compound C10]	29%	-10%	
